Assay results: BindingDB's records for doi:10.1021/jm00119a018 (Southern Research Institute, 1988)

Molecular target: Bifunctional purine biosynthesis protein ATIC (Homo sapiens, UniProt P31939)
Experiment: ChEBML_28408
Description: Compound was tested for inhibition of AICAR formyltransferase

Sequence of Bifunctional purine biosynthesis protein ATIC (P31939 whole entry): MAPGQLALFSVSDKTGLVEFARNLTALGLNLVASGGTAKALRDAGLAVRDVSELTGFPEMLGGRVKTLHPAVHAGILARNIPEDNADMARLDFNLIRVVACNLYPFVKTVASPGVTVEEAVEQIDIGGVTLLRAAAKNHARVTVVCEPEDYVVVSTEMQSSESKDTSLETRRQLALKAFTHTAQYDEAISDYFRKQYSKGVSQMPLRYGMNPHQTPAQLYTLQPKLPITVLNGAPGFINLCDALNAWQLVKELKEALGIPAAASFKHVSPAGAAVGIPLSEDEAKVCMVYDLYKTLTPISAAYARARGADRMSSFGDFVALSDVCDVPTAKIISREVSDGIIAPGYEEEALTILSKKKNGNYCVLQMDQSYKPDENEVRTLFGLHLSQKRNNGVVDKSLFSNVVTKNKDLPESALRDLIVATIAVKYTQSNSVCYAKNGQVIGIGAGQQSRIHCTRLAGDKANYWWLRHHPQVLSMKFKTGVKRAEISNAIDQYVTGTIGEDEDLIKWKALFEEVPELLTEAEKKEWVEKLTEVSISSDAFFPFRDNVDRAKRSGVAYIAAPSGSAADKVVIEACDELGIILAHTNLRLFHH

SMILES: CC1c2c(nc(N)[nH]c2=O)NCC1CCc1ccc(C(=O)NC(CCC(=O)O)C(=O)O)cc1 (stereo not drawn) [(5RS, 6RS) 2-{4-[2-(2-Amino-5-methyl-4-oxo-3,4,5,6,7,8-hexahydro-pyrido[2,3-d]pyrimidin-6-yl)-ethyl]-benzoylamino}-pentanedioic acid]
- IC50: > 20 µM
